What all share (assay type): cell-based
The target of one assay is T1, SMARCA4 (Homo sapiens, UniProt P51532).
T1 construct: endogenous in cells; host or cells: MV4-11
The assay is described as follows: SMARCA4 Western blot MV4-11 degradation. The conditions noted are these: MV4-11 cells, 24 hours; for Dmax: read-out: SMARCA4 WB MV411 degradation 24h: Average Dmax %; for DC50: read-out: SMARCA4 WB MV411 degradation 24h: Average external-Abs DC50. The protocol: (§1) Example 10. SMARCA2 and SMARCA 4 Western Blot MV4-11 Degradation
(§2) Cells were seeded into 6-well plates (MV4-11: 4×10^6 cells/well/1 ml) and 1 ml of 2× compound solution was added into the well to make the final concentration and the plates were mixed well and incubated for 24 hours (No cytotoxicity was observed). The cell were collected with media and spun at 3000 rpm for 5 minutes. The supernatant was aspirated and the well and the cells were washed with cold PBS once and combined for centrifugation again; the supernatant aspirated again. 200 ul pre-chilled RIPAlysis buffer (Boston BioProducts BP-115D) with protease/phosphatase inhibitor (Roche 05892791001/Roche 04906837001) was directly added into the tube to lyze the cells for 20 minutes on ice. The cell lysate were collected into EP tubes and spun at 13000 rpm for 20 minutes and 72 ul supernatant was transferred to a fresh EP tube containing 18 ul of 5× loading buffer (Beyotime Bio P0015) to make the loading samples. The samples were heated to 100° C. for 10 minutes and cooled to RT and microcentrifuged. 20 ul of samples were loaded onto SDS-PAGE gel (Novex, WG1402BOX) and the gel was run at 80 V for 20 minutes and 120 V for 1.5 hours. The samples were electrotransfer to a NC membrane using wet-transfer method with 250 mA for 2.5 hours. The membrane was blocked with LICOR blocking buffer (LI-COR, 927-50000) for 1 hour. The membrane was washed three times with TBST (CST #9997S), 5 minutes each. Incubation was performed with primary antibody prepared in blocking buffer with 0.1% Tween-20 (Solarbio, P8220) at 4° C. overnight (Anti-SMARCA2/BRM antibody (ab15597) 1:500; Anti-BRG1 antibody [EPR3912] (ab108318) 1:1000; Rabbit anti-Baf180 antibody [EPR15860] (Abcam,ab196022) 1:1000; mouse anti-beta-Actin (8H10D10) (CST #3700) 1:10000). The membrane was washed three times with TBST, 5 minutes each. Incubation with secondary antibody was performed for 1 hour at RT (anti-rabbit IgG (Licor, 926-32211) 1:5000; anti-mouse IgG (LI-COR, 926-68070) 1:5000). The membrane was washed three times with 5 minutes each and lastly the LiCOR was read.

For assay [1], the target named is T2, SMARCA2 (Homo sapiens, UniProt P51531). The assay is described as follows: MSD SMARCA2 degradation in A549 cell line. Further details: endogenous in cells; host or cells: A549. Conditions: A549 cells, 24 hours. The protocol: Example 9. MSD SMARCA2 Degradation in A549 Cell Line
T2 sequence (P51531 whole entry): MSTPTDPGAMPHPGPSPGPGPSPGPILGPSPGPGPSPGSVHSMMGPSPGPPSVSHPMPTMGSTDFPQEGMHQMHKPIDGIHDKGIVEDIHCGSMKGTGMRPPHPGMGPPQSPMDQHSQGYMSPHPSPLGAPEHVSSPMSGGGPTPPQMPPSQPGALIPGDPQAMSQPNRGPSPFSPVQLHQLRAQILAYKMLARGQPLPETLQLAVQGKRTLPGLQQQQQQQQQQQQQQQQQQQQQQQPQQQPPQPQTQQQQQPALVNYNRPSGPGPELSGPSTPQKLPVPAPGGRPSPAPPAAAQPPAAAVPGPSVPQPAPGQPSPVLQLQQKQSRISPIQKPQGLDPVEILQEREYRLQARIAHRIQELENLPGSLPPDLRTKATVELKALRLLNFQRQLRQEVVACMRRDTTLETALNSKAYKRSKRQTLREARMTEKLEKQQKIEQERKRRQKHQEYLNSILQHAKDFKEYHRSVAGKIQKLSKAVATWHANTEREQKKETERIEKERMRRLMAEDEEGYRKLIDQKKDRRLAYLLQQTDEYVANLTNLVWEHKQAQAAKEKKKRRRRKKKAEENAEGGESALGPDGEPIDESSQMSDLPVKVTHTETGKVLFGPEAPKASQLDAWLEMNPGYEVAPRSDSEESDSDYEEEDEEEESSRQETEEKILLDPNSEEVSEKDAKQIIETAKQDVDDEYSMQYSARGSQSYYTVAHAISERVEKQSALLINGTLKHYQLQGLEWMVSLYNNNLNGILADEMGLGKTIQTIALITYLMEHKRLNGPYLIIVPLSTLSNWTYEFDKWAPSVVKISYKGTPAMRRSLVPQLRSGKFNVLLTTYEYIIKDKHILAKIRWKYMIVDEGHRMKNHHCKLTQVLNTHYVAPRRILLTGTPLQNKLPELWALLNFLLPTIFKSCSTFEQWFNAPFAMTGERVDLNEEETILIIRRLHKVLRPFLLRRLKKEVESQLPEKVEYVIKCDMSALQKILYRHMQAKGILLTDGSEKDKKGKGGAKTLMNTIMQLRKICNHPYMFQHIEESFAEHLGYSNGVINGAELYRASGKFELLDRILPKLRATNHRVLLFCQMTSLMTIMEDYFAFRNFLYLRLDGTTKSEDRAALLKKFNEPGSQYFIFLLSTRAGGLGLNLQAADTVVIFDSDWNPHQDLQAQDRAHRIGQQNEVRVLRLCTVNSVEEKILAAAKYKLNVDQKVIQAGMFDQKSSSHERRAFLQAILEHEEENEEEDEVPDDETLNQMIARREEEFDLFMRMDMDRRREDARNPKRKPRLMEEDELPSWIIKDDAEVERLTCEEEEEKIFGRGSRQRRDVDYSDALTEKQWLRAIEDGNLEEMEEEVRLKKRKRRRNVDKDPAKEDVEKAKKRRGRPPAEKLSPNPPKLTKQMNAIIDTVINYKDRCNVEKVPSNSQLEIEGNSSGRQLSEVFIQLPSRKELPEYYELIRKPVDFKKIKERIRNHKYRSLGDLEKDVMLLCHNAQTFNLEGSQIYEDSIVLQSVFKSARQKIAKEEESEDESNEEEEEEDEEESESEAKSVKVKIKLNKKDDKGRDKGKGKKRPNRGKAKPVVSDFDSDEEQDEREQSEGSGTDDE
Cells were seeded into 96-well plates (A549 cells: 2×10^4 cells/well/100 ul media) abd incubated overnight. The next day, 200 nl compound were added into the intermediate plate with Echo (Labcyte 550) from source plate containing a 3-fold serial dilution from top concentration of 1 mM. The culture medium was changed with 80 ul of fresh medium and 80 ul of 2× compound solution was added into the well to make a final concentration of 1000 nM, 333.3 nM, 111.1 nM, 37.04 nM, 12.35 nM, 4.115 nM, 1.372 nM, 0.457 nM, 0.152 nM and 0 nM (DMSO). The wells were mixed and then incubated for 24 hours. The media was aspirated from the cultures and 60 ul pre-chilled PIPA lysis buffer (Boston BioProducts BP-115D) with protease/phosphatase inhibitor (Roche 05892791001/Roche 04906837001) was added into the well to lyze the cells for 20 minutes at 4° C. The MSD plate (L15XA) was coated with 40 ul cell lysate and incubated at 4° C. overnight. The next day, the plate was washed three times with TBST (CST #9997S), 150 ul/well. The MSD plates was blocked with 150 ul blocking buffer per well and shaked for 1 hr at RT, 600 rpm. The blocking buffer was 3% Blocker A (MSD, R93BA-4) in TBST. The MSD plate was washed three times with 150 ul/well of TBST and 25 ul/well of detection antibody (Rabbit anti-SMARCA2/BRM antibody, 100 μg/ml, ab223735) was added at final concentration of 1 ug/ml diluted in 1% Blocking buffer and shaken for 1 hour at RT, 600 rpm. The MSD plate was washed three times with 150 ul/well of TBST and 25 ul/well of SULFO-TAG anti-rabbit antibody (MSD, R32AB-1) was added at final concentration of 1 ug/ml diluted in 1% Blocking buffer and shaken for 1 hour at RT, 600 rpm. The MSD plate was washed three times with 150 ul/well of TBST and 150 ul/well of 2×MSD reading buffer diluted from 4× (MSD, R92TC-2) with water was added. Lastly, the MSD instrument was read.

Assay [2] has as its target T2, SMARCA2. The assay is described as follows: SMARCA2 Western blot MV4-11 degradation. Set-up: endogenous in cells. The conditions noted are these: MV4-11 cells, 24 hours. The method, then:
as §1
as §2, with “The membrane was blocked with LICOR blocking buffer (LI-COR, 927-50000) for 1 hour. The membrane was washed three times with TBST (CST #9997S), 5 minutes each. Incubation was performed with primary antibody prepared in blocking buffer with 0.1% Tween-20 (Solarbio, P8220) at 4° C. overnight (Anti-SMARCA2/BRM antibody (ab15597) 1:500; Anti-BRG1 antibody [EPR3912] (ab108318) 1:1000; Rabbit anti-Baf180 antibody [EPR15860] (Abcam,ab196022) 1:1000; mouse anti-beta-Actin (8H10D10) (CST #3700) 1:10000). The membrane was washed three times with TBST, 5 minutes each. Incubation with secondary antibody was performed for 1 hour at RT (anti-rabbit IgG (Licor, 926-32211) 1:5000; anti-mouse IgG (LI-COR, 926-68070) 1:5000).” left out
Background: In western blotting, separated proteins are transferred to a membrane and probed.

The target of assay [3] is T2, SMARCA2. The assay is described as follows: MSD SMARCA2 degradation in NCI-H1299 cell line. Set-up: endogenous in cells. Conditions: NCI-H1299 cells, 24 hours. The method, then:
Example 8. MSD SMARCA2 Degradation in NCI-H1299 Cell Line
Cell Culture: Cells were Cultured in Exponential Growth Phase.
Compound Preparation and Treatment: NCI-H1299 cells were seeded into the 96-well plate at 4.0*10^4 cells per 100 ul per well. Incubate the plate in the incubator overnight. The next day, compounds were diluted to designed stock concentration by TECAN, then perform a 3 fold, 9-point dilution via transferring 15 uL compound into 30 μL DMSO using Apricot. 200 nL diluted compound from compound source plate were transferred into the 96-intermediate plate as designated by using Echo550, followed with 100 ul culture medium to make the 2× compound solution. Cell plate were changed with 80 ul of fresh culture medium and 80 ul of 2× compound solution was added into the well to achieve the final designed concentration. Cell plate was then shaken at 720 rpm for 5 min and incubated for 24 hours in the incubator.
Sample Preperation: Media was aspirated from the cultures and the plate was washed with PBS twice. 60 ul of pre-chilled PIPA lysis buffer (Boston BioProducts BP-115D) with protease inhibitor were directly added into the well to lyze the cells for 20 minutes at 4° C. Cell lysates were collected.
MSD Procedure: The MSD plate was coated with 40 ul cell lysate and incubated at 4° C. overnight. The next day, the MSD coated bare plate was washed 3 times with 150 ul 1×TBST per well, blocked with 150 ul of blocking buffer per well, and shaken for 1 hour at RT, 600 rpm. Blocking buffer was 3% Blocker A in TBST. MSD plate was then washed 3 times with 150 ul 1× TBST per well and Primary Detection antibody (Rabbit anti-SMARCA2/BRM antibody, 100 μg/ml, ab223735) was added to a final [conc.]: 0.3 ug/ml, 25 ul/well and shaken for 1 hour at RT, 600 rpm. Antibody was prepared in Antibody Detection buffer (1% Blocker A in 1×TBST). The MSD plate was then washed 3 times with 150 ul 1×TBST per well. Secondary Detection antibody (SULFO-TAG anti-species antibody) was then added to a final [conc.]: 1 ug/ml, 25 ul/well, and shaken for 1 hour at RT, 600 rpm. Antibodies were prepared in Antibody Detection buffer (1% Blocker A in 1×TBST). MSD plate was washed 3 times with 150 ul 1×TBST per well and 2× MSD reading buffer was added, 150 ul per well, and diluted from 4× with water. MSD instrument was then read.
Data Analysis: The percentage of relative level of SMARCA2 level was calculated following equation below.
LC: A2780, SMARCA2 negative cells. HC: NCI-H1299 cells treated with DMSO.

T1 sequence (P51532 whole entry): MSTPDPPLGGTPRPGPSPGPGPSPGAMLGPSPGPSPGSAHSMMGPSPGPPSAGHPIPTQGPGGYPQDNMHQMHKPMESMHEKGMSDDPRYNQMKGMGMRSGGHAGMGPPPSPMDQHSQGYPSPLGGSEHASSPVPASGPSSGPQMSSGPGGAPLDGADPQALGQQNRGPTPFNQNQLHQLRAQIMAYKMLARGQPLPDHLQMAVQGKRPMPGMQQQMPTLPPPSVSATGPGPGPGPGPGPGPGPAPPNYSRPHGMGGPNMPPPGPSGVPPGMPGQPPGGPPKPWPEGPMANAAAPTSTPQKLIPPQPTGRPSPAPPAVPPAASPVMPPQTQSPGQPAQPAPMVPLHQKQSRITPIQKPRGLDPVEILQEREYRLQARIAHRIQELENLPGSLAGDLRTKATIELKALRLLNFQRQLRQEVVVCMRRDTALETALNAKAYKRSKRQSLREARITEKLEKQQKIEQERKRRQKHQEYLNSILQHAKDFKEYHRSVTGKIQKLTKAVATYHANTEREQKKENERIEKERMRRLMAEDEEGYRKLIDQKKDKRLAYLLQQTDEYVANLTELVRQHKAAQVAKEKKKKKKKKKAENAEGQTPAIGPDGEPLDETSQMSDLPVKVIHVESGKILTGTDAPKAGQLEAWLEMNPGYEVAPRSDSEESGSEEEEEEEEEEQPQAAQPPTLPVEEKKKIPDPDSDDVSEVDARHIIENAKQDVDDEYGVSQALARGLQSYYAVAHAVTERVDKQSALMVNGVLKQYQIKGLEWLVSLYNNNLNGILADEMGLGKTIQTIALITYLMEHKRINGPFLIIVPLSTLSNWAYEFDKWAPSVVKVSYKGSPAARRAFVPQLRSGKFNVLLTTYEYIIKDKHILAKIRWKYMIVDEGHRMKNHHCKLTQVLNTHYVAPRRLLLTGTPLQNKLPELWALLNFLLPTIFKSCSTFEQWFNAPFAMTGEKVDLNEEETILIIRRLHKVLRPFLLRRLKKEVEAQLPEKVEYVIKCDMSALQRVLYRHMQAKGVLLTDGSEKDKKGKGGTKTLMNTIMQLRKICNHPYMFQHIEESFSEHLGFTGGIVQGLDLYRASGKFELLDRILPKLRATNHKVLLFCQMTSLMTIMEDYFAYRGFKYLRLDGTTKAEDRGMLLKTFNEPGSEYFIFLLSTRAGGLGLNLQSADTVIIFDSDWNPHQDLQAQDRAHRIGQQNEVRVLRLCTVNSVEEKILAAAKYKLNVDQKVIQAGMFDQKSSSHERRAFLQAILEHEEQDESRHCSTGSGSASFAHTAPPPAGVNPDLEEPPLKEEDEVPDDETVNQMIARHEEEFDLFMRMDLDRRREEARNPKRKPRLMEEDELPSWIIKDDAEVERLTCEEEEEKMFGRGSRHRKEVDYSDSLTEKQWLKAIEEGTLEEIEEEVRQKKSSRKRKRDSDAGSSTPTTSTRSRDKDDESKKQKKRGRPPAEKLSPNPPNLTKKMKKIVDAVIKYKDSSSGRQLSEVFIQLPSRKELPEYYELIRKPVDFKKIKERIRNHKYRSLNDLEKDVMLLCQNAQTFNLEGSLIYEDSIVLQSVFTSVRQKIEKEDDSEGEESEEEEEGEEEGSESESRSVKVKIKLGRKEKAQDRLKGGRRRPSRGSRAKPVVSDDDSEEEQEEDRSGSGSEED

In the case of `Cc1ncsc1-c1ccc(CNC(=O)[C@@H]2C[C@@H](O)CN2C(=O)[C@@H](NC(=O)[C@H]2CC[C@H](c3cnc(N4CCC(c5c[nH]c6nnc(-c7ccccc7O)cc56)CC4)nc3)CC2)C(C)(C)C)cc1` [I-46, (2S,4R)-4-hydroxy-1-((S)-2-((1r,4S)-4-(2-(4-(3-(2-hydroxyphenyl)-7H-pyrrolo[2,3-c]pyridazin-5-yl)piperidin-1-yl)pyrimidin-5-yl)cyclohexanecarboxamido)-3,3-dimethylbutanoyl)-N-(4-(4-methylthiazol-5-yl)benzyl)pyrrolidine-2-carboxamide], the maximal degradation (Dmax) at SMARCA4 is 50 to 70%; at SMARCA2 [1], more than 90%; at SMARCA2 [2] (read-out: SMARCA2 WB MV411 degradation 24h: Average Dmax %) it was more than 90%. The DC50 is more than 1000 nM on SMARCA4, less than 100 nM at SMARCA2 [1] (read-out: SMARCA2 MSD A549 degradation 24h: Average external-Abs DC50) and less than 100 nM at SMARCA2 [2] (read-out: SMARCA2 WB MV411 degradation 24h: Average external-Abs DC50).

`Cn1c(=O)n(C2CCC(=O)NC2=O)c2cccc(CCCCCN3CCC(c4c[nH]c5nnc(-c6ccccc6O)cc45)CC3)c21` (centres unmarked) [I-10] displayed a Dmax on SMARCA2 [3] of less than 50%. Moreover, on SMARCA4, the maximal degradation (Dmax) is less than 50% and the 50% degradation concentration (DC50) is less than 100 nM.

`Cn1c(=O)n(C2CCC(=O)NC2=O)c2ccc(CCCCCCCCCN3CCC(c4c[nH]c5nnc(-c6ccccc6O)cc45)CC3)cc21` (centres unmarked) [I-7]: the Dmax on SMARCA2 [3] was less than 50%. Also, on SMARCA4, the Dmax was less than 50% and the half-maximal degradation concentration (DC50) was less than 100 nM.

`Cc1ncsc1-c1ccc(CNC(=O)[C@@H]2C[C@@H](O)CN2C(=O)[C@@H](NC(=O)CCCCCN2CCC(c3c[nH]c4nnc(-c5ccccc5O)cc34)CC2)C(C)(C)C)cc1` [I-9] showed a maximal degradation (Dmax) at SMARCA2 [3] of less than 50%.

With `Cn1c(=O)n(C2CCC(=O)NC2=O)c2cccc(CCCOCCCN3CCC(c4c[nH]c5nnc(-c6ccccc6O)cc45)CC3)c21` (centres unmarked) [I-6], the greatest degradation seen (Dmax) at SMARCA2 [3] is less than 50%. Besides, on SMARCA4, the Dmax was less than 50% and the DC50 is 100 to 500 nM.

For the compound `Cn1c(=O)n(C2CCC(=O)NC2=O)c2cccc(CN3CCC(c4c[nH]c5nnc(-c6ccccc6O)cc45)CC3)c21` (centres unmarked) [I-13], the greatest degradation seen (Dmax) on SMARCA2 [3] was less than 50%. Moreover, on SMARCA4, the maximal degradation (Dmax) was less than 50% and the half-maximal degradation concentration (DC50) is less than 100 nM.

In the case of `Cn1c(=O)n(C2CCC(=O)NC2=O)c2cccc(CCCN3CCC(c4c[nH]c5nnc(-c6ccccc6O)cc45)CC3)c21` (centres unmarked) [I-11, 3-(4-(3-(4-(3-(2-hydroxyphenyl)-7H-pyrrolo[2,3-c]pyridazin-5-yl)piperidin-1-yl)propyl)-3-methyl-2-oxo-2,3-dihydro-1H-benzo[d]imidazol-1-yl)piperidine-2,6-dione], the maximal degradation (Dmax) on SMARCA2 [3] and at SMARCA4 was less than 50% each time.

As to `Cc1ncsc1-c1ccc(CNC(=O)[C@@H]2C[C@@H](O)CN2C(=O)[C@@H](NC(=O)CCCCCCCN2CCC(c3c[nH]c4nnc(-c5ccccc5O)cc34)CC2)C(C)(C)C)cc1` [I-12], on SMARCA2 [3], the Dmax is less than 50%.

As for `Cc1ncsc1-c1ccc(CNC(=O)[C@@H]2C[C@@H](O)CN2C(=O)[C@@H](NC(=O)CCCCCCCCCN2CCC(c3c[nH]c4nnc(-c5ccccc5O)cc34)CC2)C(C)(C)C)cc1` [I-8], at SMARCA2 [3], the Dmax fell in the range of 50 to 70%.

A word on the Dmax: it is the largest share of the target that was removed. As usually defined, the DC50 is the midpoint of the concentration-degradation curve.

(Values after US12521438B2, “SMARCA degraders and uses thereof” (Kymera Therapeutics, Inc., priority 2019, dated 2026).)
